Experimental data: patent US6770738B1, “Higher order structure and binding of peptide nucleic acids” (ISIS Pharmaceuticals, Inc., priority 1992, dated 2004)

Columns and labels:
Assay type in all cases: binding
[1] = system: complementary deoxyoligonucleotide; assay: Melting temperature of complexes with complementary DNA; details: 100 mM NaCl, 10 mM Na-phosphate, 0.1 mM EDTA, pH 7; 4 μM of each strand
Description: (§1) The thermal stability measured as the melting temperature, Tm, of complexes between the pentadecamer, H-TGTACGTCACAACTA-NH2 (SEQ ID NO:10) and the complementary deoxyoligonucleotide 3′-ACATGCAGTGTTGAT (SEQ ID NO:47) (termed anti-parallel orientation: amino terminal of the PNA complementary to the 3′-end of the oligonucleotide) was 69.5° C. (see Table II), whereas the Tm of the corresponding PNA-DNA complex in parallel orientation was 56.1° C. The Tm for the PNA-RNA complexes was 72.3 and 51.2° C., respectively (see Table II). The orientation preference was further settled by using two decamer PNAs, and hybridizing these to complementary oligonucleotides in both orientations. The anti-parallel orientation was preferred in all cases (see Table II). Furthermore, it is noteworthy that virtually identical Tms were obtained regardless of which strand is the PNA and which is the DNA (see Table II, 2nd & 3rd row).

complementary DNA = assay: Thermodynamics of duplex formation with DNA
Description: (§2) Thermodynamics parameters for hybridization can be extracted from thermal stability measurements when these are performed at varying concentrations of the complexes, or from the shape of the thermal denaturation curves. Both methods were used to determine ΔH°, ΔS° and ΔG° for formation of the PNA/RNA, DNA/RNA, PNA/DNA and DNA/DNA duplexes (Table III). It is remarkable that the decrease in entropy is almost identical for the formation of DNA/DNA and PNA/DNA duplexes and that both reactions are strongly enthalpy driven.

complementary RNA [2] = assay: Thermodynamics of duplex formation with RNA
Description: as §2

[3] = system: RNA target 5′-TAGTTGTGACGTACA-3; assay: Equilibrium and rate constants for duplexes with RNA (gel-shift); details: [Na+] 0.1 M, 37 ° C.; 100 mM NaCl, 10 mM phosphate, 1 mM EDTA, pH 7.0; gel-shift with 32P-labeled RNA
complementary RNA [4] = assay: Melting temperature of complexes with complementary RNA; details: 100 mM NaCl, 10 mM Na-phosphate, 0.1 mM EDTA, pH 7; 4 μM of each strand
Description: as §1

5′d(AAAAGGAGAG) = assay: Melting temperature of complex with decamer; details: pH 7
Description: (§3) The dimer prepared in Example 53 was incorporated into PNA H-TT(detT-idaT)CCTCTC-LysNH2 (SEQ ID NO:53) generally in accordance with Example 1. The melting temperatures, Tm, of complexes between this PNA and decamers 5′d(AAAAGGAGAG) (SEQ ID NO:54) and 5′d(GAGAGGAAAA) (SEQ ID NO:55) were 55° C. and 43.5° C., respectively, at pH 7. By comparison, the Tm of complexes between PNA H-TTTCCTCTC-LysNH2 (SEQ ID NO:56), prepared generally in accordance with Example 1, and these decamers was 58.5° C. and 40.5° C., respectively, at pH 7.

5′d(GAGAGGAAAA) = assay: Melting temperature of complex with decamer; details: pH 7
Description: as §3

[5] = 8 μM, average of the two methods
[6] = 8 μM, fit to modified two state model
[7] = 8 μM, linear plots of 1/TM versus log (concentration)
[8] = fit to modified two state model
[9] = fit to modified two state model, 100 mM NaCl, 10 mM Na-phosphate, 0.1 mM EDTA, pH 7.0
[10] = linear plots of 1/TM versus log (concentration)

## DNA TGTACGTCACAACTA: DNA oligonucleotide 5′-TGTACGTCACAACTA-3′ as first strand of reference duplexes (DNA, backbone and methylation of C not given here) [reference compound]
[1]
  Melting temperature Tm, DNA:DNA: 53.3 °C
Complementary DNA; [5]
  TM (average of the two methods): 53.5 °C
Complementary DNA; [6]
  TM (melting curve fit): 53.6 °C
Complementary DNA; [7]
  TM (1/TM versus log concentration): 53.5 °C
Complementary DNA; average of the two methods
  ΔG°37 (average of the two methods): -13.1 kcal/mol
  ΔH° (average of the two methods): -98.4 kcal/mol
  ΔS° (average of the two methods): −275.1 eu
Complementary DNA; [8]
  ΔG°3 (melting curve fit): −12.7
  ΔS° (melting curve fit): −253.9 eu
Complementary DNA; [9]
  ΔH° (melting curve fit): -91.5 kcal/mol
Complementary DNA; [10]
  ΔG°37 (1/TM versus log concentration): −13.4 kcal/mol
  ΔH° (1/TM versus log concentration): −105.3 kcal/mol
  ΔS° (1/TM versus log concentration): −296.2 eu
Complementary RNA [2]; [5]
  TM (average of the two methods): 50.0 °C
Complementary RNA [2]; [6]
  TM (melting curve fit): 49.8 °C
Complementary RNA [2]; [7]
  TM (1/TM versus log concentration): 50.1 °C
Complementary RNA [2]; average of the two methods
  ΔG°37 (average of the two methods): -12.6 kcal/mol
  ΔH° (average of the two methods): -111.5 kcal/mol
  ΔS° (average of the two methods): −318.9 eu
Complementary RNA [2]; [8]
  ΔG°3 (melting curve fit): −11.8
  ΔS° (melting curve fit): −264.9 eu
Complementary RNA [2]; [9]
  ΔH° (melting curve fit): -94.0 kcal/mol
Complementary RNA [2]; [10]
  ΔG°37 (1/TM versus log concentration): −13.3 kcal/mol
  ΔH° (1/TM versus log concentration): −128.9 kcal/mol
  ΔS° (1/TM versus log concentration): −372.8 eu
[3]
  Kd: 2 nM
Complementary RNA [4]
  Melting temperature Tm, DNA:RNA: 50.6 °C

## H-TT(detT-idaT)CCTCTC-LysNH2 [PNA H-TT(detT-idaT)CCTCTC-LysNH2]
5′d(AAAAGGAGAG)
  melting temperature Tm: 55 °C
5′d(GAGAGGAAAA)
  melting temperature Tm: 43.5 °C
